Results as given in patent publication US12617757B2, “Compounds and modules for inhibition of pre-miR-21 and their use in treatment of certain cancers” (University of Florida Research Foundation, Incorporated, priority 2019, dated 2026).

Target: T1, RNase L (Homo sapiens, UniProt Q05823)
T1 sequence (Q05823 1-741): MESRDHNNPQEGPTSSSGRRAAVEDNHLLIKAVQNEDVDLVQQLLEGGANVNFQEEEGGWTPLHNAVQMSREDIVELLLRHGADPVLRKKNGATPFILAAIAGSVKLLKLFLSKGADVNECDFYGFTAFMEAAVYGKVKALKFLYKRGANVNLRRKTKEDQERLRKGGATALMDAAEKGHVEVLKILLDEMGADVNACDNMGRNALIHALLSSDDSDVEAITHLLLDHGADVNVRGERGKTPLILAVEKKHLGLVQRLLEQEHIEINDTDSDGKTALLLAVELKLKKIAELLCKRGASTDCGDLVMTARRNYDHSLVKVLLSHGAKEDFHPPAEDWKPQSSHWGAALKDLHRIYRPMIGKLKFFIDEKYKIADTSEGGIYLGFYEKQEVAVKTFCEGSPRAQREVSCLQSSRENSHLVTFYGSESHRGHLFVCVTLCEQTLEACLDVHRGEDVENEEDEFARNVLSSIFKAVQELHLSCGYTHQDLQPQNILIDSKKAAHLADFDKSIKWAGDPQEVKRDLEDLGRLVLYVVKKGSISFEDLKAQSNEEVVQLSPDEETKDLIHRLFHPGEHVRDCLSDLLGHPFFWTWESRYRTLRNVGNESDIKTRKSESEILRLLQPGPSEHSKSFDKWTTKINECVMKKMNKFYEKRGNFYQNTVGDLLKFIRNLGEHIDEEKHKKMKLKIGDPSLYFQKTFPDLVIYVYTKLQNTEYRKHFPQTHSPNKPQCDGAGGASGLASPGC
Assay: In vitro fluorescence recovery assay with model RNA (RNase L activation)
Assay type: biochemical
Parameters: GST; made in house
Experimental: In Vitro Fluorescent RNA Cleavage. A model RNA hairpin^15 labeled with a 5′ 6-Fluorescein (6FAM) and 3′ Black Hole Quencher (IQ4) (5′ 6FAM-[…]-3′ IQ4; 5′ FAM/3′ BHQ model RNA) (SEQ ID NO: 3) or a miR-21 Hairpin Precursor RNA labeled with a 5′ 6-Fluorescein (6FAM) and 3′ Black Hole Quencher (IQ4) (5′ 6FAM-[…] […]-3′ IQ4; 5′ FAM/3′ BHQ miR-21 Hairpin Precursor RNA) (SEQ ID NO: 4) was purchased from Chemgenes with HPLC purification. Solutions of RNA (100 nM) were folded at 65° C. for 5 min and slowly cooled to room temperature in 1×RNase L Buffer (25 mM Tris-HCl, pH 7.4, 100 mM KCl) without MgCl2, β-mercaptoethanol or ATP. After folding, the RNA was supplemented with 10 mM MgCl2, fresh 7 mM β-mercaptoethanol, and 50 μM of ATP. Next, 100 nM of RNase L, prepared as described previously^22, and various concentrations of screening compounds were prepared in 1×RNase L Buffer and added to the RNA. […] The samples were incubated at room temperature for 60 min after which the fluorescence intensity (Ex: 485 nm, Em: 525 nm) was measured using a SpectraMax M5 plate reader or Biotek FLx800 plate reader. The percentage change in fluorescence intensity, where enhancement of fluorescence intensity was indicative of RNA cleavage, was determined by calculating the percentage change in sample fluorescent signals relative to the untreated fluorescent signal (Fi, %). […]

For `CCOC(=O)C1=C(Nc2ccccc2)S/C(=C\c2ccc(OC)c(O)c2)C1=O` [Compound 3], the “RNase L activation, dose-responsive measurements” value was “most active activator of RNase L”.
